The record followed here is patent US9388208B2, “Pyrrolo[1,2-f][1,2,4]triazines useful for treating respiratory syncitial virus infections” (Gilead Sciences, Inc., priority 2013, dated 2016).

Like-named read-outs stand apart in the source and are kept apart here.

The target in data set [1] is T1, RSV ribonucleoprotein (RNP) complexes (Human respiratory syncytial virus A, UniProt P28887).
T1 construct: The supernatant (S3) fraction, containing the enriched RSV RNP complexes, was collected; endogenous in cells; host or cells: HEp-2 cells infected with RSV A2; detergent-extracted crude S3 fraction
T1 sequence (P28887 whole entry): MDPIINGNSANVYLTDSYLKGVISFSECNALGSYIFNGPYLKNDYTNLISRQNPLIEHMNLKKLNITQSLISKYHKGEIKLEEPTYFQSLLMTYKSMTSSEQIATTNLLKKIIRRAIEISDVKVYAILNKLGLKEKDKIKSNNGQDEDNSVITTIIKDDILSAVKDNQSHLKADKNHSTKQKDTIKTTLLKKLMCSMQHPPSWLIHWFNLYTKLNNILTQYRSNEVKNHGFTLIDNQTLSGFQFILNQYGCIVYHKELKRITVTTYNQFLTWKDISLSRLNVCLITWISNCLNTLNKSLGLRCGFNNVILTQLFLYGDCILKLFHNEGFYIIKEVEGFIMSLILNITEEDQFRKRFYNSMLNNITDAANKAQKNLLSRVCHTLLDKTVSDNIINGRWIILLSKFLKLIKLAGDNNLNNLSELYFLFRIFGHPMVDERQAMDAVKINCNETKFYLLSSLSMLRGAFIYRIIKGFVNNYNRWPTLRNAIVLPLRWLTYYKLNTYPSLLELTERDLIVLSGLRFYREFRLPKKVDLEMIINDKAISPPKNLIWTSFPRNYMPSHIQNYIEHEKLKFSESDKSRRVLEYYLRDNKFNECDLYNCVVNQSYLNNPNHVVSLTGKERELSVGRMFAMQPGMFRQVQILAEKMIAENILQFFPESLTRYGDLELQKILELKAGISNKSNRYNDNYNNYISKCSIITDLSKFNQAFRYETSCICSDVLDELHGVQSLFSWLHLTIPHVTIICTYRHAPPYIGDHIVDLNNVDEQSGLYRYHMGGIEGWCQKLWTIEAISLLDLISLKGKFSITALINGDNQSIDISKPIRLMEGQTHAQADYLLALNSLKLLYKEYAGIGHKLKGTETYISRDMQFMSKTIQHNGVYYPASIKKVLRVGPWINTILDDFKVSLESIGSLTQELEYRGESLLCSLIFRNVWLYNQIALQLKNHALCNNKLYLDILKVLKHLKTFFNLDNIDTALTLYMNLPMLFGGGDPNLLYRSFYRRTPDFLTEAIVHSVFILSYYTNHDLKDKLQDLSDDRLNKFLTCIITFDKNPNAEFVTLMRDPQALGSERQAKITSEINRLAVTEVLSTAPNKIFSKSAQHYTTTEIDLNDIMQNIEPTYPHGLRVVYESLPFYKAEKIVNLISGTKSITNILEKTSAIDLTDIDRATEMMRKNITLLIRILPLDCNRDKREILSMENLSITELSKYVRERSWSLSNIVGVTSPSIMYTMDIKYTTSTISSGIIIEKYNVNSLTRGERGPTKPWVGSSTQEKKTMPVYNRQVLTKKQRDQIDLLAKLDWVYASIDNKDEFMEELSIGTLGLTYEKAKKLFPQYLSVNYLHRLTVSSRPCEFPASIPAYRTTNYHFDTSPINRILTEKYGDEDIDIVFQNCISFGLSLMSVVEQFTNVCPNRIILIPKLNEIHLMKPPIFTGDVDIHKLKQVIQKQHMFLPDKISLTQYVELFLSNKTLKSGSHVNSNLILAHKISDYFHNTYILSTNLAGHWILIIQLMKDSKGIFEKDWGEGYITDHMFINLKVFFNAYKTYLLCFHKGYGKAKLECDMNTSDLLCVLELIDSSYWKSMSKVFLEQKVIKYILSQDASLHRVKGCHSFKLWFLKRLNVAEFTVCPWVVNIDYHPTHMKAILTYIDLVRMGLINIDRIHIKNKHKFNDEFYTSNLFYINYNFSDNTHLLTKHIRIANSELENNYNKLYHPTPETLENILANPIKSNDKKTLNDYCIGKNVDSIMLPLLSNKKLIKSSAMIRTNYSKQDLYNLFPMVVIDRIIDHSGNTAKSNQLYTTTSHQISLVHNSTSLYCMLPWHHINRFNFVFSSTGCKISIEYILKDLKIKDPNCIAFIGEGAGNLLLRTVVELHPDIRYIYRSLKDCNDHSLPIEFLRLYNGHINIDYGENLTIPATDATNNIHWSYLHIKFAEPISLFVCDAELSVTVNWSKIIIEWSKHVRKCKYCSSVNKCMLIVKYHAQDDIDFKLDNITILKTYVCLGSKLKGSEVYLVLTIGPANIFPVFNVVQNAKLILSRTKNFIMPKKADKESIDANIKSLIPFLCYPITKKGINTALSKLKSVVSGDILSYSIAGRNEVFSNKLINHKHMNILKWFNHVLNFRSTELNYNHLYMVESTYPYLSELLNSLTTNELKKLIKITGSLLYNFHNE
T1 sequence (P03421 whole entry, further chain): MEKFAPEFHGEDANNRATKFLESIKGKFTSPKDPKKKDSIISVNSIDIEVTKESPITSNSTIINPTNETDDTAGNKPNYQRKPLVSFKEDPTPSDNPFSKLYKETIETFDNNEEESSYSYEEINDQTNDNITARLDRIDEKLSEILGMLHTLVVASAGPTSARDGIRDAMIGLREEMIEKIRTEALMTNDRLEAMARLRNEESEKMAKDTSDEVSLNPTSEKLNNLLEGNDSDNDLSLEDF
Briefly: RSV RNP assay (inhibition of RSV RNP transcription). It counts as biochemical, RSV A2. Particulars: 90 minute incubation at 30° C., total radiolabeled transcripts. The protocol:
RSV ribonucleoprotein (RNP) complexes were prepared from a method modified from Mason at al (1). HEp-2 cells were plated at a density of 7.1×10^4 cells/cm^2 in MEM+10% fetal bovine serum (FBS) and allowed to attach overnight at 37° C. (5% CO2). Following attachment, the cells were infected with RSV A2 (M01=5) in 35 mL MEM+2% FBS. At 20 hours post-infection, the media was replaced with MEM+2% FBS supplemented with 2 μg/mL actinomycin D and returned to 37° C. for one hour. The cells were then washed once with PBS and treated with 35 mL of PBS+250 μg/mL lyso-lecithin for one minute, after which all liquid was aspirated. The cells were harvested by scrapping them into 1.2 mL of buffer A [50 mM TRIS acetate (pH 8.0), 100 mM potassium acetate, 1 mM DTT and 2 μg/mL actinomycin D] and lysed by repeated passage through an 18 gauge needle (10 times). The cell lysate was placed in ice for 10 minutes and then centrifuged at 2400g for 10 minutes at 4° C. The supernatant (S1) was removed and the pellet (P1) was disrupted in 600 uL of Buffer B [10 mM TRIS acetate (pH 8.0), 10 mM potassium acetate and 1.5 mM MgCl2] supplemented with 1% Triton X-100 by repeated passage through an 18 gauge needle (10 times). The resuspended pellet was placed in ice for 10 minutes and then centrifuged at 2400g for 10 minutes at 4° C. The supernatant (S2) was removed and the pellet (P2) was disrupted in 600 uL of Buffer B supplemented with 0.5% deoxycholate and 0.1% Tween 40. The resuspended pellet was placed in ice for 10 minutes and then centrifuged at 2400g for 10 minutes at 4° C. The supernatant (S3) fraction, containing the enriched RSV RNP complexes, was collected and the protein concentration determined by UV absorbance at 280 nm. Aliquoted RSV RNP S3 fractions were stored at −80° C.
Transcription reactions contained 25 μg of crude RSV RNP complexes in 30 μL of reaction buffer [50 mM TRIS-acetate (pH 8.0), 120 mM potassium acetate, 5% glycerol, 4.5 mM MgCl2, 3 mM DTT, 2 mM ethyleneglycol-bis(2-aminoethylether)-tetraacetic acid (EGTA), 50 μg/mL BSA, 2.5 U RNasin (Promega), ATP, GTP, UTP, CTP and 1.5 uCi [α-^32P] NTP (3000 Ci/mmol)]. The radiolabeled nucleotide used in the transcription assay was selected to match the nucleotide analog being evaluated for inhibition of RSV RNP transcription. Cold, competitive NTP was added at a final concentration of one-half its Km (ATP=20 μM, GTP=12.5 μM, UTP=6 μM and CTP=2 μM). The three remaining nucleotides were added at a final concentration of 100 μM.
To determine whether nucleotide analogs inhibited RSV RNP transcription, compounds were added using a 6 step serial dilution in 5-fold increments. Following a 90 minute incubation at 30° C., the RNP reactions were stopped with 350 μL of Qiagen RLT lysis buffer and the RNA was purified using a Qiagen RNeasy 96 kit. Purified RNA was denatured in RNA sample loading buffer (Sigma) at 65° C. for 10 minutes and run on a 1.2% agarose/MOPS gel containing 2M formaldehyde. The agarose gel was dried and exposed to a Storm phosphorimager screen and developed using a Storm phosphorimager (GE Healthcare). The concentration of compound that reduced total radiolabeled transcripts by 50% (IC50) was calculated by non-linear regression analysis of two replicates.

Data set [2] is described as follows: Cytotoxicity assay in HEp-2 cells. The conditions noted are these: human, uninfected HEp-2 cells, CellTiter Glo. The format is cell-based. How it is done: Cytotoxicity of tested compounds is determined in uninfected HEp-2 cells in parallel with the antiviral activity using the cell viability reagent in a similar fashion as described before for other cell types (Cihlar et al., Antimicrob Agents Chemother. 2008, 52(2):655-65.). The same protocol as for the determination of antiviral activity is used for the measurement of compound cytotoxicity except that the cells are not infected with RSV. Instead, an uninfected cell mixture at the same density is added at 20 ul/well to plates containing prediluted compounds, also at 100 nl/sample. Assay plates are then incubated for 4 days followed by a cell viability test using the same CellTiter Glo reagent addition and measurement of luminescent readouts. Untreated cell and cells treated at 2 uM puromycin (Sigma, St. Louis, Mo.) serve as 100% and 0% cell viability control, respectively. The percent of cell viability is calculated for each tested compound concentration relative to the 0% and 100% controls and the CC50 value is determined by non-linear regression as a compound concentration reducing the cell viability by 50%.
On the technique in general: In ATP-based viability assays light output follows the ATP content of the culture.

The subject of data set [3] is RSV strain A2. Nature of the data set: Anti-RSV activity, infectious cytopathic cell protection assay in HEp-2 cells. It counts as cell-based, Respiratory Syncytial Virus (RSV). Particulars: human respiratory syncytial virus. The protocol:
Antiviral activity against RSV is determined using an infectious cytopathic cell protection assay in HEp-2 cells. In this assay, compounds inhibiting viral infection and/or replication produce a cytoprotective effect against the virus-induced cell killing that can be quantified using a cell viability reagent. The techniques used here are novel adaptations of methods described in published literature (Chapman et al., Antimicrob Agents Chemother. 2007, 51(9):3346-53.)
HEp-2 cells are obtained from ATCC (Manassas, VI) and maintained in MEM media supplemented with 10% fetal bovine serum and penicillin/streptomycin. Cells are passaged twice a week and kept at subconfluent stage. Commercial stock of RSV strain A2 (Advanced Biotechnologies, Columbia, Md.) is titered before compound testing to determine the appropriate dilution of the virus stock that generates desirable cytopathic effect in HEp-2 cells.
For antiviral tests, HEp-2 cells are grown in large cell culture flasks to near confluency but not fully so. The compounds to be tested are prediluted in DMSO in 384-well compound dilution plates, either in an 8 or 40 sample per plate standardized dose response format. 3-fold serial dilution increments of each test compound are prepared in the plates and test samples are transferred via acoustic transfer apparatus (Echo, Labcyte) at 100 nl per well into cell culture assay 384-well plates. Each compound dilution is transferred in single or quadruplicate samples into dry assay plates, which are stored until assay is ready to go. The positive and negative controls are laid out in opposite on ends of the plate in vertical blocks (1 column).
Subsequently, an infectious mixture is prepared using an appropriate dilution of virus stock previously determined by titration with cells at a density of 50,000/ml and 20 uL/well is added to test plates w/compounds via automation (uFlow, Biotek). Each plate includes negative and positive controls (16 replicates each) to create 0% and 100% virus inhibition standards, respectively. Following the infection with RSV, testing plates are incubated for 4 days in a 37° C. cell culture incubator. After the incubation, a cell viability reagent, Cell TiterGlo (Promega, Madison, Wis.) is added to the assay plates, which are incubated briefly, and a luminescent readout is measured (Envision, Perkin Elmer) in all the assay plates. The RSV-induced cytopathic effect, percentage inhibition, is determined from the levels of remaining cell viability. These numbers are calculated for each tested concentration relative to the 0% and 100% inhibition controls, and the EC50 value for each compound is determined by non-linear regression as a concentration inhibiting the RSV-induced cytopathic effect by 50%. Various potent anti-RSV tool compounds are used as positive controls for antiviral activity.
In general terms: Cytopathic effects are the visible damage that an infection or toxin causes in cultured cells.

Data set [4] is described as follows: Cytotoxicity assay in MT-4 cells. The format is cell-based. The conditions noted are these: human, Cell-Titer Glo. How it is done:
The MT-4 cell line was obtained from the NIH AIDS Research and Reference Reagent Program (Germantown, Md.) and cultured in RPMI-1640 medium (Irvine Scientific, Santa Ana, Calif., Cat #9160) supplemented with 10% FBS, 100 units/mL penicillin, 100 units/mL streptomycin, and 2 mM L-Glutamine. The MT-4 cells were passaged twice per week to maintain cell densities below 0.6×10^6 cells/mL. Complete RPMI-1640 media containing 100× concentrations of 3-fold serially diluted compound, ranging from 26 nM to 530 μM, were stamped in quadruplicate into black 384-well plates. After compound addition, 2×10^3 MT-4 cells were added to each well using a MicroFlo liquid dispenser (BioTek, Winooski, Vt.) and the cells were cultured for 5 days at 37° C. in a 5% CO2 incubator. Following the incubation the cells were allowed to equilibrate to 25° C. and cell viability was determined by adding 25 μL of Cell-Titer Glo viability reagent. The mixture was incubated for 10 minutes at 25° C., and the luminescence signal was quantified on a Victor Luminescence plate reader. The CC50 value is defined as the concentration of compound that reduces cell viability by 50% as determined by the Cell-Titer Glo signal. The data were analyzed using Pipeline Pilot Plate Data Analytics Collection software (Version 7.0, Accelrys, San Diego, Calif.). CC50 values were calculated from a non-linear regression analysis using a 4-parameter sigmoidal dose-response equation: Y=Bottom+(Top−Bottom)/(1+10^[(Log CC50−X)*HillSlope]) where the Top and Bottom were fixed at 100% and 0% cell viability, respectively. CC50 values were calculated as the average±standard deviation of 3 independent experiments.

The mark [5] stands for this setting: 96 h, HEp-2 cells infected with RSV A2, 4 days, Cell TiterGlo, read-out: EC50.
The mark [6] stands for this setting: HEp-2 anti-RSV activity, read-out: EC50 (HEp-2 anti-RSV activity).

The term IC50 denotes the concentration at which inhibition is half-maximal. Lower therefore signals higher potency. Take `C[C@@]1(O)[C@H](O)[C@@H](COP(=O)(O)OP(=O)(O)OP(=O)(O)O)O[C@H]1c1ccc2c(N)ncnn12` [((2R,3R,4R,5S)-5-(4-aminopyrrolo[2,1-f][1,2,4]triazin-7-yl)-3,4-dihydroxy-4-methyltetrahydrofuran-2-yl)methyl tetrahydrogen triphosphate, reference compound]: the IC50 in data set [1] amounted to 8.5 µM.

Take `C[C@@]1(F)[C@H](O)[C@@H](COP(=O)(O)OP(=O)(O)OP(=O)(O)O)O[C@H]1c1ccc2c(N)ncnn12` [((2R,3R,4R,5S)-5-(4-aminopyrrolo[2,1-f][1,2,4]triazin-7-yl)-4-fluoro-3-hydroxy-4-methyltetrahydrofuran-2-yl)methyl tetrahydrogen triphosphate, reference compound]: in data set [1], the IC50 is above 100 µM.

On to `N#C[C@]1(COP(=O)(O)OP(=O)(O)OP(=O)(O)O)O[C@@H](c2ccc3c(N)ncnn23)[C@H](F)[C@@H]1O` [Example 6, ((2R,3R,4R,5S)-5-(4-aminopyrrolo[1,2-f][1,2,4]triazin-7-yl)-2-cyano-4-fluoro-3-hydroxytetrahydrofuran-2-yl)methyl tetrahydrogen triphosphate], for which the IC50 in data set [1] was 0.086 µM.

For orientation: CC50 means the concentration that lowers cell viability or growth by half. Read a high CC50 as better tolerance by the cells. As a reminder, the EC50 is the concentration that produces a half-maximal response. As to `[N-]=[N+]=N[C@]1(CO)O[C@@H](c2cc(F)c3c(N)ncnn23)[C@H](F)[C@@H]1O` [Example 21, (2R,3R,4R,5S)-5-(4-amino-5-fluoropyrrolo[2,1-f][1,2,4]triazin-7-yl)-2-azido-4-fluoro-2-(hydroxymethyl)tetrahydrofuran-3-ol], in data set [2], the CC50 at 4 days was 36 µM. Also, the EC50 in data set [3] (setting [5]) is 50 µM; in data set [3] (setting [6]) it was below 100 µM. For the same compound, it took 15 µM to reach half-maximal cytotoxicity in data set [4] (CC50 at 5 days).

In data set [2], `N#C[C@]1(CO)O[C@@H](c2cc(F)c3c(N)ncnn23)[C@H](F)[C@@H]1O` [Example 23, (2R,3R,4R,5S)-5-(4-amino-5-fluoropyrrolo[2,1-f][1,2,4]triazin-7-yl)-4-fluoro-3-hydroxy-2-(hydroxymethyl)tetrahydrofuran-2-carbonitrile] registered a CC50 at 4 days of 72 µM. The EC50 in data set [3] (setting [5]) is 23.5 µM; in data set [3] (setting [6]), below 100 µM. The compound also gave a CC50 at 5 days in data set [4] of 21 µM.

`C[C@]1(CO)O[C@@H](c2ccc3c(N)ncnn23)[C@H](F)[C@@H]1O` [Example 24, (2R,3R,4R,5S)-5-(4-aminopyrrolo[2,1-f][1,2,4]triazin-7-yl)-4-fluoro-2-(hydroxymethyl)-2-methyltetrahydrofuran-3-ol] yielded a CC50 at 4 days in data set [2] above 100 µM. In addition, the EC50 in data set [3] (setting [5]) is 1 µM; in data set [3] (setting [6]) it was below 100 µM. Besides, in data set [4], the midpoint of cytotoxicity, the CC50 at 5 days, lay at 11 µM.

Compound `N#C[C@]1(CO)O[C@@H](c2cc(F)c3c(N)ncnn23)[C@H](O)[C@@H]1O` [Example 25, (2R,3S,4R,5S)-5-(4-amino-5-fluoropyrrolo[2,1-f][1,2,4]triazin-7-yl)-3,4-dihydroxy-2-(hydroxymethyl)tetrahydrofuran-2-carbonitrile] showed a CC50 at 4 days in data set [2] above 100 µM. Moreover, the concentration giving a half-maximal response (EC50) in data set [3] (setting [5]) worked out at 9.2 µM. Further, the CC50 at 5 days in data set [4] was above 93 µM.

`CCOC(=O)[C@H](C)NP(=O)(OC[C@@]1(C#N)O[C@@H](c2ccc3c(N)ncnn23)[C@H](O)[C@@H]1O)Oc1ccccc1` (stereo partly drawn) [Example 35, (2S)-ethyl 2-(((((2R,3S,4R,5S)-5-(4-aminopyrrolo[2,1-f][1,2,4]triazin-7-yl)-2-cyano-3,4-dihydroxytetrahydrofuran-2-yl)methoxy)(phenoxy)phosphoryl)amino) propanoate] registered a CC50 at 4 days in data set [2] above 50 µM. The same compound gave a concentration giving a half-maximal response (EC50) in data set [3] (HEp-2, 96 h) of 0.34 µM. The compound further registered a CC50 at 5 days in data set [4] of 47 µM.
